Results: ChEMBL document CHEMBL3885881, “DrugMatrix”

Species on record: Rattus norvegicus
Test: DrugMatrix - Regimen: Daily Repeat
Assay type: toxicity, organism-based, Sprague-Dawley
Design: regimen Daily Repeat, gender Male, age 6-8 weeks
Details: in vivo, iv, vehicle 100 % SALINE; for ABSOLUTE BASOPHIL / ABSOLUTE EOSINOPHIL / ABSOLUTE LYMPHOCYTE / ABSOLUTE MONOCYTE / ABSOLUTE SEGMENTED NEUTROPHIL / BASOPHIL / EOSINOPHIL / ERYTHROCYTE COUNT / HEMATOCRIT / HEMOGLOBIN / LEUKOCYTE COUNT / LYMPHOCYTE / MEAN CORPUSCULAR HEMOGLOBIN / MEAN CORPUSCULAR HEMOGLOBIN CONCENTRATION / MEAN CORPUSCULAR VOLUME / MONOCYTE / NEUTROPHIL / NUCLEATED RED BLOOD CELLS / PLATELET COUNT: tissue Blood; for ALANINE AMINOTRANSFERASE / ALBUMIN / ALKALINE PHOSPHATASE / ASPARTATE AMINOTRANSFERASE / BLOOD UREA NITROGEN / CARBON DIOXIDE / CHLORIDE / CHOLESTEROL / CREATINE PHOSPHOKINASE / CREATININE / GLUCOSE / LACTATE DEHYDROGENASE / LIPASE / PHOSPHORUS / POTASSIUM / SODIUM / TOTAL BILIRUBIN / TOTAL PROTEIN / URIC ACID: tissue Plasma
[1] = 0 mg/kg, 72 h, dose level Control, time 3 day
[2] = 0 mg/kg, 120 h, dose level Control, time 5 day
[3] = […], 72 h, dose 0.15 mg/Kg, dose level Low, time 3 day
[4] = […], 72 h, dose 1.5 mg/Kg, dose level High, time 3 day

`CCC1=C[C@@H]2CN(C1)Cc1c([nH]c3ccccc13)[C@@](C(=O)OC)(c1cc3c(cc1OC)N(C)[C@H]1[C@@](O)(C(=O)OC)[C@H](OC(C)=O)[C@]4(CC)C=CCN5CC[C@]31[C@@H]54)C2` [VINORELBINE] was tested, and the “ABSOLUTE BASOPHIL” value [1] was 0 CELLS/uL, the “ABSOLUTE EOSINOPHIL” value [1] was 15.33 CELLS/uL and the “ABSOLUTE LYMPHOCYTE” value [1] was 9513.5 CELLS/uL. For the same molecule, the “ABSOLUTE MONOCYTE” value [1] was 94.67 CELLS/uL, the “ABSOLUTE SEGMENTED NEUTROPHIL” value [1] was 709.83 CELLS/uL and the BASOPHIL [1] was 0%. The EOSINOPHIL [1] was 0.17%, the “ERYTHROCYTE COUNT” value [1] was 5.63 x10E6/uL and the HEMATOCRIT [1] was 34.63%. The HEMOGLOBIN [1] was 13.6 G/DL, the “LEUKOCYTE COUNT” value [1] was 10.33 x10E3/uL and the LYMPHOCYTE [1] was 92%. For the same molecule, the “MEAN CORPUSCULAR HEMOGLOBIN” value [1] was 24.17 pg, the “MEAN CORPUSCULAR HEMOGLOBIN CONCENTRATION” value [1] was 39.28 G/DL and the “MEAN CORPUSCULAR VOLUME” value [1] was 61.57 fL. For the same molecule, the MONOCYTE [1] was 0.83%, the NEUTROPHIL [1] was 7% and the “NUCLEATED RED BLOOD CELLS” value [1] was 0 /100WBC. The “PLATELET COUNT” value [1] was 903.17 x10E3/uL, the “ALANINE AMINOTRANSFERASE” value [1] was 49.33 u/L and the ALBUMIN [1] was 4.27 G/DL. The “ALKALINE PHOSPHATASE” value [1] was 400.83 u/L, the “ASPARTATE AMINOTRANSFERASE” value [1] was 77.5 u/L and the “BLOOD UREA NITROGEN” value [1] was 16.33 mg/dL. For the same molecule, the “CARBON DIOXIDE” value [1] was 29.33 mmol/L, the CHLORIDE [1] was 99.67 MEQ/L and the CHOLESTEROL [1] was 66.67 mg/dL. The “CREATINE PHOSPHOKINASE” value [1] was 275.33 u/L, the CREATININE [1] was 0.18 mg/dL and the GLUCOSE [1] was 163.83 mg/dL. The “LACTATE DEHYDROGENASE” value [1] was 125.33 u/L, the LIPASE [1] was 10 u/L and the PHOSPHORUS [1] was 12.12 mg/dL. The POTASSIUM [1] was 6.68 MEQ/L, the SODIUM [1] was 144.02 MEQ/L and the “TOTAL BILIRUBIN” value [1] was 0.18 mg/dL. For the same molecule, the “TOTAL PROTEIN” value [1] was 5.87 G/DL, the “URIC ACID” value [1] was 1.63 mg/dL and the “ABSOLUTE BASOPHIL” value [2] was 0 CELLS/uL. For the same molecule, the “ABSOLUTE EOSINOPHIL” value [2] was 48.83 CELLS/uL, the “ABSOLUTE LYMPHOCYTE” value [2] was 14562 CELLS/uL and the “ABSOLUTE MONOCYTE” value [2] was 138.67 CELLS/uL. The “ABSOLUTE SEGMENTED NEUTROPHIL” value [2] was 1733.83 CELLS/uL, the BASOPHIL [2] was 0% and the EOSINOPHIL [2] was 0.33%. The “ERYTHROCYTE COUNT” value [2] was 5.89 x10E6/uL, the HEMATOCRIT [2] was 36.7% and the HEMOGLOBIN [2] was 14.42 G/DL. For the same molecule, the “LEUKOCYTE COUNT” value [2] was 16.48 x10E3/uL, the LYMPHOCYTE [2] was 88.83% and the “MEAN CORPUSCULAR HEMOGLOBIN” value [2] was 24.52 pg. For the same molecule, the “MEAN CORPUSCULAR HEMOGLOBIN CONCENTRATION” value [2] was 39.3 G/DL, the “MEAN CORPUSCULAR VOLUME” value [2] was 62.37 fL and the MONOCYTE [2] was 0.67%. The NEUTROPHIL [2] was 10.17%, the “NUCLEATED RED BLOOD CELLS” value [2] was 0 /100WBC and the “PLATELET COUNT” value [2] was 1076.5 x10E3/uL. The “ALANINE AMINOTRANSFERASE” value [2] was 44.67 u/L, the ALBUMIN [2] was 4.23 G/DL and the “ALKALINE PHOSPHATASE” value [2] was 357.33 u/L. The “ASPARTATE AMINOTRANSFERASE” value [2] was 84.83 u/L, the “BLOOD UREA NITROGEN” value [2] was 15.5 mg/dL and the “CARBON DIOXIDE” value [2] was 27 mmol/L. The CHLORIDE [2] was 99.5 MEQ/L, the CHOLESTEROL [2] was 63.67 mg/dL and the “CREATINE PHOSPHOKINASE” value [2] was 331.33 u/L. The CREATININE [2] was 0.18 mg/dL, the GLUCOSE [2] was 167.33 mg/dL and the “LACTATE DEHYDROGENASE” value [2] was 320.17 u/L. It also gave an LIPASE [2] of 9.17 u/L, a PHOSPHORUS [2] of 12.05 mg/dL and a POTASSIUM [2] of 6.54 MEQ/L. The SODIUM [2] was 143.02 MEQ/L, the “TOTAL BILIRUBIN” value [2] was 0.2 mg/dL and the “TOTAL PROTEIN” value [2] was 6.23 G/DL. For the same molecule, the “URIC ACID” value [2] was 2.07 mg/dL, the “ABSOLUTE BASOPHIL” value [3] was 0 CELLS/uL and the “ABSOLUTE EOSINOPHIL” value [3] was 49.67 CELLS/uL. For the same molecule, the “ABSOLUTE LYMPHOCYTE” value [3] was 13595.67 CELLS/uL, the “ABSOLUTE MONOCYTE” value [3] was 462 CELLS/uL and the “ABSOLUTE SEGMENTED NEUTROPHIL” value [3] was 1292.67 CELLS/uL. The BASOPHIL [3] was 0%, the EOSINOPHIL [3] was 0.33% and the “ERYTHROCYTE COUNT” value [3] was 5.91 x10E6/uL. For the same molecule, the HEMATOCRIT [3] was 37.77%, the HEMOGLOBIN [3] was 14.97 G/DL and the “LEUKOCYTE COUNT” value [3] was 15.4 x10E3/uL. The LYMPHOCYTE [3] was 87.67%, the “MEAN CORPUSCULAR HEMOGLOBIN” value [3] was 25.3 pg and the “MEAN CORPUSCULAR HEMOGLOBIN CONCENTRATION” value [3] was 39.63 G/DL. The “MEAN CORPUSCULAR VOLUME” value [3] was 63.93 fL, the MONOCYTE [3] was 3% and the NEUTROPHIL [3] was 9%. The “NUCLEATED RED BLOOD CELLS” value [3] was 0 /100WBC, the “PLATELET COUNT” value [3] was 1301 x10E3/uL and the “ABSOLUTE BASOPHIL” value [4] was 0 CELLS/uL. For the same molecule, the “ABSOLUTE EOSINOPHIL” value [4] was 0 CELLS/uL, the “ABSOLUTE LYMPHOCYTE” value [4] was 5207.33 CELLS/uL and the “ABSOLUTE MONOCYTE” value [4] was 23 CELLS/uL. The “ABSOLUTE SEGMENTED NEUTROPHIL” value [4] was 236.33 CELLS/uL, the BASOPHIL [4] was 0% and the EOSINOPHIL [4] was 0%. For the same molecule, the “ERYTHROCYTE COUNT” value [4] was 5.25 x10E6/uL, the HEMATOCRIT [4] was 33.27% and the HEMOGLOBIN [4] was 13.3 G/DL. For the same molecule, the “LEUKOCYTE COUNT” value [4] was 5.47 x10E3/uL, the LYMPHOCYTE [4] was 95.33% and the “MEAN CORPUSCULAR HEMOGLOBIN” value [4] was 25.4 pg. The “MEAN CORPUSCULAR HEMOGLOBIN CONCENTRATION” value [4] was 40 G/DL, the “MEAN CORPUSCULAR VOLUME” value [4] was 63.43 fL and the MONOCYTE [4] was 0.33%. For the same molecule, the NEUTROPHIL [4] was 4.33%, the “NUCLEATED RED BLOOD CELLS” value [4] was 0.33 /100WBC and the “PLATELET COUNT” value [4] was 808.33 x10E3/uL.
